Reference: patent US5834429A, “Small peptides which inhibit binding to T-4 receptors and act as immunogens” (priority 1993, dated 1998)

Columns and labels:
[1] = test system: T4 antigen (gp120 receptor) on fresh rat hippocampal membranes; assay: Displacement of specific 125I-gp120 binding to brain membranes; conditions: for potency compared with peptide T (in words): FIG. 3; for rank order of potencies in inhibiting receptor binding: four peptides
Procedure: HTLV-IIIb isolate of HIV was propaged in H9 cells, and the gp120 was isolated by immunoaffinity chromatography and preparative NaDodSO4 /PAGE. Purified gp120 was labeled with ^125 I by the chloramine-T method.
Fresh human, monkey, and rat hippocampus were quickly homogenized (POLYTRON, Brinkmann Instruments) in 100 vol of ice-cold 50 mM Hepes (pH 7.4). The membranes collected by centrifugation (15,000×g) were washed in the original buffer volume and were used fresh or stored at -70° C. Before use, brain membranes and highly purified T cells (ref. 16; gift of Larry Wahl) were preincubated for 15-30 min in phosphate-buffered saline (PBS). Membranes derived from 2 mg (initial wet weight) of brain (.chi.100 μg of protein) were incubated with 28,000 cpm of ^125 I-gp120 for 1 hr at 37° C. in 200 μl (final volume) of 50 mM Hepes containing 0.1% bovine serum albumin and the peptidase inhibitors bacitracin (0.005%), aprotinin (0.005%), leupeptin (0.001%), and chymostatin (0.001%). Incubations were rapidly vacuum-filtered and counted to determine the receptor-bound material.

HTLV-III virus (HIV) = assay: Blockade of viral infection of human T cells (reverse transcriptase activity); format: cell-based; conditions: FIG. 3; for rank order of potencies in inhibiting viral infectivity: four peptides
Procedure: Separation of T-Lymphocyte Subsets. Subsets of T cells were obtained by treatment of PERCOLL density-purified peripheral blood T cells with specific monoclonal antibodies (T4 or T8) at 10 μg/ml. The treated cells were then panned (21) on a plastic Petri dish that was coated with goat [F(ab')2 ] anti-mouse immunoglobulin (Sero Lab, Eastbury, Mass.) for 30 min at 4° C. The nonadherent cells were then removed, washed, and analyzed for reactivity by flow cytometry. The separated T4 and T8 cell populations have <5% contamination of other T-cell subsets. Cells were then cultured with phytohemagglutinin (1 μg/ml) for 72 hr and exposed to HIV as described below. Infected cells were phenotypically characterized when cytotoxicity assays were performed.
Virus Infection. The HTLV-III virus used for infection was isolated from an interleukin 2 (IL-2)-dependent cultured T-cell line established from fresh AIDS patient material and passaged into HuT 78, a permissive IL-2-independent cell line.

T4 viral receptors = T4 viral receptors (Homo sapiens, UniProt P01730); assay: Activity of cysteine-extended core peptide (test not specified)

| Molecule | potency compared with peptide T (in words) [1] | rank order of potencies in inhibiting receptor binding [1] | rank order of potencies in inhibiting viral infectivity (HTLV-III virus (HIV)) | inhibition of gp120 binding to brain membranes (in words) [1] | concentration range at which 125I-gp120 binding is significantly inhibited ([1]; fresh rat hippocampal membranes, FIG. 2C) [nM] | blockade of viral infectivity (in words) (HTLV-III virus (HIV); human T cells) | activity (in words) (T4 viral receptors) |
| --- | --- | --- | --- | --- | --- | --- | --- |
| C[C@@H](N)C(=O)N[C@@H](CO)C(=O)N[C@H](C(=O)N[C@H](C(=O)N[C@H](C(=O)N[C@@H](CC(N)=O)C(=O)N[C@@H](Cc1ccc(O)cc1)C(=O)N[C@H](C(N)=O)[C@@H](C)O)[C@@H](C)O)[C@@H](C)O)[C@@H](C)O [D-[Ala]1-peptide T-amide] | somewhat greater potency | D-[Ala]1 -peptide T-amide>D-[Ala]1 -peptide T>peptide T>D-[Thr]8 -peptide T-amide | D-[Ala]1 -peptide T-amide>D-[Ala]1 -peptide T>peptide T>D-[Thr]8 -peptide T-amide |  |  |  |  |
| C[C@@H](N)C(=O)N[C@@H](CO)C(=O)N[C@H](C(=O)N[C@H](C(=O)N[C@H](C(=O)N[C@@H](CC(N)=O)C(=O)N[C@@H](Cc1ccc(O)cc1)C(=O)N[C@H](C(=O)O)[C@@H](C)O)[C@@H](C)O)[C@@H](C)O)[C@@H](C)O [D-[Ala]1-peptide T] | consistently more potent | D-[Ala]1 -peptide T-amide>D-[Ala]1 -peptide T>peptide T>D-[Thr]8 -peptide T-amide | D-[Ala]1 -peptide T-amide>D-[Ala]1 -peptide T>peptide T>D-[Thr]8 -peptide T-amide |  |  |  |  |
| C[C@H](N)C(=O)N[C@@H](CO)C(=O)N[C@H](C(=O)N[C@H](C(=O)N[C@H](C(=O)N[C@@H](CC(N)=O)C(=O)N[C@@H](Cc1ccc(O)cc1)C(=O)N[C@H](C(=O)O)[C@@H](C)O)[C@@H](C)O)[C@@H](C)O)[C@@H](C)O [peptide T] |  | D-[Ala]1 -peptide T-amide>D-[Ala]1 -peptide T>peptide T>D-[Thr]8 -peptide T-amide | D-[Ala]1 -peptide T-amide>D-[Ala]1 -peptide T>peptide T>D-[Thr]8 -peptide T-amide | inhibit binding of gp 120 to the brain membranes | ~0.1 | blocked |  |
| CYS-THR-THR-ASN-TYR-THR-CYS (CTTNYTC; printed: CYS-THR-THR-ASN-TYR-THR-CYS) |  |  |  |  |  |  | active |
| substance P [1-8]: irrelevant octapeptide substance P [1-8] (RPKPQQFF; Substance P; UniProt P20366 58-65, looked up, fragment) [reference compound] |  |  |  | not |  |  |  |
